Results on 19 molecules are retold here after US20250017922A1, “BIFUNCTIONAL COMPOUNDS FOR DEGRADING BTK WITH ENHANCED IMID ACTIVITY” (NURIX THERAPEUTICS, INC., priority 2021, published 2025).

For data set [1], the target named is T1, Aiolos (Homo sapiens, UniProt Q96SW2+Q9UKT9).
T1 construct: endogenous in cells; host or cells: human PBMCs (CD20+CD3- B cells, CD3+CD20- T cells)
In words: Aiolos degradation in human PBMCs, flow cytometry (IMiD activity). It is filed as cell-based. The following applies: 24 hours; for DC50: Aiolos degradation; for Dmax: read-out: Dmax (maximum percent Aiolos degradation). The method, then:
Frozen human peripheral blood mononuclear cells (PBMCs) were thawed and treated with DMSO or compound for 24 hours and then fixed and permeabilized using a Foxp3/Transcription Factor Fixation/Permeabilization Kit (eBioscience, 00-5523). Cells were stained with fluorophore-conjugated antibodies against CD20 (Biolegend 302330), CD3 (BD Pharmingen 552127), and Aiolos (Biolegend 371106). An additional set of DMSO-treated PBMCs was stained for CD20, CD3, and an AlexaFluor 647-conjugated mouse IgG1 isotype control antibody (Biolegend 400136). Stained cells were run on an Attune NxT Acoustic Focusing Flow Cytometer (Thermo-Fisher A29004), and data was analyzed using FlowJo (v10.5.3) and GraphPad Prism (v7.00) software. Single lymphocytes were gated for B cells (CD20+CD3−) and T cells (CD3+CD20−), and the geometric mean fluorescence intensity (MFI) of Aiolos was calculated for each population. The MFI of the isotype control was calculated for each population and used to quantify background staining. Percent Aiolos degradation was calculated for each compound-treated sample using the following equation: […]
DC50 is the compound concentration degrading […] of Aiolos. Dmax is the maximum percent Aiolos degradation in the assay.
(In general: A flow cytometer gives signals particle by particle.)

For data set [2], the system named is arthritis. As to the kind of experiment: Arthritis model, clinical arthritis score and body weight. It is filed as in vivo, mice. Conditions: daily oral treatment at 30 mg/kg, compared to dexamethasone and vehicle. The method, then:
Significance of clinical arthritis score (A) was determined from the area under the curve (AUC) of mean paw scores calculated for individual mice. (C) Serum levels of anti-type II collagen IgG. Statistical significance was determined between vehicle control and treated groups with one-way Kruskal-Wallis ANOVA and Dunn's multiple comparisons test.

Data set [3] addresses T2, BTK (Homo sapiens, UniProt Q06187).
T2 construct: host or cells: preclinical models (not described)
As to the kind of experiment: BTK degradation and anti-tumor activity in preclinical models. The format is in vivo.

The target in data set [4] is T3, Ikaros (Homo sapiens, UniProt Q13422+Q96SW2).
T3 construct: from tissue; host or cells: patient PBMCs, lysed after in vivo dosing
T3 sequence (Q13422 whole entry): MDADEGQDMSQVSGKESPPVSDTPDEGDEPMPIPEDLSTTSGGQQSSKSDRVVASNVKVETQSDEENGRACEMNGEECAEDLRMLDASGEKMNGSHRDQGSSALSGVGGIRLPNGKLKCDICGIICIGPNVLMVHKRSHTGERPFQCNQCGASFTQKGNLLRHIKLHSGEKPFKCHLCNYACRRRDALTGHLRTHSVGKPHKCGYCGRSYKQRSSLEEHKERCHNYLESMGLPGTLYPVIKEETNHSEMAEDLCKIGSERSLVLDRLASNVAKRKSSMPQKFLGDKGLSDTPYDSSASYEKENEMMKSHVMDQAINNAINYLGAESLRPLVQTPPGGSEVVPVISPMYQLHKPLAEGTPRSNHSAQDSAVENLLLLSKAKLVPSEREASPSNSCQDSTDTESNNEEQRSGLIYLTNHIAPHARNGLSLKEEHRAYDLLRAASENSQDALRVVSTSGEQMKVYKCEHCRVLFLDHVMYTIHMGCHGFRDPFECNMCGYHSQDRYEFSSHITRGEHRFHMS
T3 sequence (Q96SW2 whole entry): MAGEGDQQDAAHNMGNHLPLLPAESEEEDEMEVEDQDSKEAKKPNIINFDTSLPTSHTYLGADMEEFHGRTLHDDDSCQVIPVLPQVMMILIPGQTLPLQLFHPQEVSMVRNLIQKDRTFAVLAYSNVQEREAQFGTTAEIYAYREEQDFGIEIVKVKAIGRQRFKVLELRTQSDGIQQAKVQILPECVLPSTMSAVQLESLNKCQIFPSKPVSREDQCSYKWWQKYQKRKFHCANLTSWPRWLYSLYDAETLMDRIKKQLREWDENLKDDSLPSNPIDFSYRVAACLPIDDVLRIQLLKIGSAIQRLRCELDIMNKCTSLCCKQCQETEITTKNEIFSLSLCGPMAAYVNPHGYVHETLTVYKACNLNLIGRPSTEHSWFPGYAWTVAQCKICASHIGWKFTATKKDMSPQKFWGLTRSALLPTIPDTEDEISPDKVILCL
T3 sequence (Q16531 whole entry partner): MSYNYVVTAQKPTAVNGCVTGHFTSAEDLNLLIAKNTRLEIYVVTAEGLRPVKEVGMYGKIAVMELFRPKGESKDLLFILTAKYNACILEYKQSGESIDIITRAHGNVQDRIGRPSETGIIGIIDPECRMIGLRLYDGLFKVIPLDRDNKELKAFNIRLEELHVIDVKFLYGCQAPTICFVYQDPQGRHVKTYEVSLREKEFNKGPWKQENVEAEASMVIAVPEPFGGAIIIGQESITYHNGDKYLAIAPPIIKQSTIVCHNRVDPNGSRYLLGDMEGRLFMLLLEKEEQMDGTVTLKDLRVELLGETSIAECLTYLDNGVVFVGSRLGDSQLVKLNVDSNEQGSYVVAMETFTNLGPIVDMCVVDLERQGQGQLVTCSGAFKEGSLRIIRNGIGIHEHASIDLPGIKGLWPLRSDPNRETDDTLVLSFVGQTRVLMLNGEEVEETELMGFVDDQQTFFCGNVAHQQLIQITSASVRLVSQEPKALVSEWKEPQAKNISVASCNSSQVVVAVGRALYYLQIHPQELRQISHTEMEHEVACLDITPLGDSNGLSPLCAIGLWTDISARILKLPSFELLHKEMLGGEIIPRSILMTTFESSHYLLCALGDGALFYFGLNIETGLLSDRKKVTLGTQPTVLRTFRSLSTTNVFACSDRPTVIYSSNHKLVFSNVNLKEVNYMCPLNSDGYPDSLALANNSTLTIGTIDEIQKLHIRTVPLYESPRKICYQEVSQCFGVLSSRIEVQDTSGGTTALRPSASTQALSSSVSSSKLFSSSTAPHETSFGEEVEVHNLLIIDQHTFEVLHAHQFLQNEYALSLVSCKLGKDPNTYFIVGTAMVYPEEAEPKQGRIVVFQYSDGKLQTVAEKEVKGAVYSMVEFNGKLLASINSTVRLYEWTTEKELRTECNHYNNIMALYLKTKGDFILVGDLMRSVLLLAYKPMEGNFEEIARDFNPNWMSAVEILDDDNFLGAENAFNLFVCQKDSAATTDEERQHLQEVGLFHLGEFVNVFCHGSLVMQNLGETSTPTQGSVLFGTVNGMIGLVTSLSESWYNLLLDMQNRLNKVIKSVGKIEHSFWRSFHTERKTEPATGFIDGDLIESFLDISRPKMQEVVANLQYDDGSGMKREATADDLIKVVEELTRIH
In words: Ikaros degradation in patient PBMCs, Western blot (Jess Simple Western). Conditions: Cycle 1 Day 8. The format is in vivo. The method, then:
Frozen patient PBMCs collected at baseline and at Cycle 1 Day 8 were processed into protein lysate and degradation of cereblon neo-substrate Ikaros was determined using Western blot via Jess™ Simple Western automated system. […] Patients receiving 300 mg Compound 5, 75.2-95.7% Ikaros degradation was detected.
Frozen PBMCs from patients were prepared and Ikaros protein levels were assessed using Western blot via Jess™ Simple Western automated system.
FIG. 7A, densitometric analysis of Ikaros degradation in all patients were obtained after normalization to β-actin and % Ikaros degradation was calculated relative to Baseline values from each patient.
For Ikaros degradation assessment, patient PBMCs were lysed in lysis buffer RIPA buffer (Fisher, PI89901), complete Mini EDTA-free protease inhibitor (Sigma 11836170001), Protease Inhibitor Cocktail (Sigma, P2714) and Phosphatase Inhibitor Cocktail 2 and 3 (Sigma, P5726 and P0044) and stored overnight at −80° C. Cells were then thawed and centrifuged for 5 min at 8000×g and lysate supernatants were transferred to a fresh tube. Protein levels were determined by BCA Assay performed according to manufacturer's protocol (EMD Millipore, cat. no. 71285-3). A total of 3 μg protein was loaded and 1:50 dilution of primary anti-Ikaros (Cell Signaling Technology, cat. 14859) and 1:50 anti-β-Actin (Cell Signaling Technology, cat. 8457) was used. […]
(In general: Immunoblotting shows a protein as a band on a membrane.)

T1 sequence (Q9UKT9 whole entry): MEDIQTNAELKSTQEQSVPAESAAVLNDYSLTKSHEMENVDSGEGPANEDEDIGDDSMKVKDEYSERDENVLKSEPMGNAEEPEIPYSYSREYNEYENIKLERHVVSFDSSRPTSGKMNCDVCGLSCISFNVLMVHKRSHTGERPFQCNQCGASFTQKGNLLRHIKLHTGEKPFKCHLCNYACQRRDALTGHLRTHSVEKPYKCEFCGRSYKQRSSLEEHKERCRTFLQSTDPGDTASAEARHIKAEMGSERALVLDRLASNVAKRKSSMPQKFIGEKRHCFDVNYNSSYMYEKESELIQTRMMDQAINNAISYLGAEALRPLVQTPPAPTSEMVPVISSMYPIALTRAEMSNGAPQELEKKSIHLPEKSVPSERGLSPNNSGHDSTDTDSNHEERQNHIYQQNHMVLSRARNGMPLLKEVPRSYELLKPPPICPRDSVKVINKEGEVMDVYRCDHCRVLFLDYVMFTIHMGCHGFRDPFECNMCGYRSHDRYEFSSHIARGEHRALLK
T1 sequence (Q96SW2 whole entry): as the sequence (Q96SW2 whole entry) above
T1 sequence (Q16531 whole entry partner): as the sequence (Q16531 whole entry partner) above
T2 sequence (Q06187 whole entry, species assumed): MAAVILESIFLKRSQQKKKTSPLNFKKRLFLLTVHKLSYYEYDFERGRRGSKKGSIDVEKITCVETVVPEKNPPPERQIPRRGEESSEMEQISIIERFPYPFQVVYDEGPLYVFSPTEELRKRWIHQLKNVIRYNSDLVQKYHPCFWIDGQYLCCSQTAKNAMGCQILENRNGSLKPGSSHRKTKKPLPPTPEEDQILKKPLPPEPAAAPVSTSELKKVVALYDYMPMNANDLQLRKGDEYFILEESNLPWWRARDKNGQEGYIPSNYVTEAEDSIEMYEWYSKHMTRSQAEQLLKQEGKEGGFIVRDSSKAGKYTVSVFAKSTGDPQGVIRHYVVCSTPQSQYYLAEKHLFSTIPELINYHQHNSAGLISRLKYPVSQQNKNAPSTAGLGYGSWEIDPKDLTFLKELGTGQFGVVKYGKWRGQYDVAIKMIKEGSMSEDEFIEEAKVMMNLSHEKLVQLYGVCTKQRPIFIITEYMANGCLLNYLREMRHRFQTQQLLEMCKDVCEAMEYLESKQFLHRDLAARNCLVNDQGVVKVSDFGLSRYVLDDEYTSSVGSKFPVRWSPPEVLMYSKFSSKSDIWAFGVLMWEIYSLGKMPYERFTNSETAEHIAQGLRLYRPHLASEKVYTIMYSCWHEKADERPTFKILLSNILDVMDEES

For the molecule `NC(=O)c1ncc(N2CCCCC2)nc1Nc1ccc2c(c1)CCN(C1CN(c3ccc4c(c3)C(=O)N(C3CCC(=O)NC3=O)C4=O)C1)C2` (racemic) [Compound 2, rac-3-{[2-(1-{2-[(3R)-2,6-dioxopiperidin-3-yl]-1,3-dioxoisoindol-5-yl}azetidin-3-yl)-3,4-dihydro-1H-isoquinolin-6-yl]amino}-5-(piperidin-1-yl)pyrazine-2-carboxamide], in data set [1], the DC50 (in general, the midpoint of the concentration-degradation curve) was found to be 0.0052 µM and the Dmax (as a rule, the largest share of the target that was removed) is 94.7%.

Regarding `NC(=O)c1ncc(N2CCCCC2)nc1Nc1ccc2c(c1)CCN(C[C@H]1CCN(c3ccc4c(c3)C(=O)N(C3CCC(=O)NC3=O)C4=O)C1)C2` (stereo partly drawn) [Compound 1], in data set [1], the DC50 was found to be 0.027 µM and the Dmax was 77.4%.

Regarding `CN1CCN([C@@H]2CCCN(c3cnc(C(N)=O)c(Nc4ccc(C5CCN(C[C@H]6CC[C@H](Nc7cccc8c7C(=O)N(C7CCC(=O)NC7=O)C8=O)CC6)CC5)cc4)n3)C2)C1=O` (stereo partly drawn) [Compound 3], in data set [1], the DC50 was determined as 0.093 µM and the Dmax came out at 84.9%.

Take `CN1CCN([C@@H]2CCCN(c3cnc(C(N)=O)c(Nc4ccc(C5CCN(CCCNc6cccc7c6C(=O)N(C6CCC(=O)NC6=O)C7=O)CC5)cc4)n3)C2)C1=O` (stereo partly drawn) [Compound 4]: in data set [1], the DC50 came out at 0.008 µM and the maximal degradation (Dmax) was 87%.

As for `NC(=O)c1ncc(N2CCCCC2)nc1Nc1ccc(C2CCN(C[C@@H]3CCN(c4ccc5c(c4)C(=O)N(C4CCC(=O)NC4=O)C5=O)C3)CC2)cc1` (stereo partly drawn) [Compound 5], in data set [1], the 50% degradation concentration (DC50) came to 0.022 µM and the maximal degradation (Dmax) came to 89.1%. Moreover, the body weight loss result in data set [2] was “minimal body weight loss”. The same molecule registered a BTK degradation in data set [3] of at least 80%. In addition, the Ikaros degradation in data set [4] (patients receiving 300 mg) is given as 75.2-95.7%. Besides, the Ikaros degradation in data set [4] (patients receiving either 100 or 200 mg) is 26.1-60.5%.

Turning to `CN1CCN([C@H]2CCCN(c3cnc(C(N)=O)c(Nc4cnn(C5CCN(CC6CN(c7ccc8c(c7)C(=O)N(C7CCC(=O)NC7=O)C8=O)C6)CC5)c4)n3)C2)C1=O` (stereo partly drawn) [Compound 6], in data set [1], the DC50 was found to be 0.023 µM and the Dmax came to 70.8%.

Consider `CN1CCN([C@H]2CCCN(c3cnc(C(N)=O)c(Nc4ccc5c(c4)CCN(CC4CN(c6ccc7c(c6)C(=O)N(C6CCC(=O)NC6=O)C7=O)C4)C5)n3)C2)C1=O` (stereo partly drawn) [Compound 7], for which, in data set [1], the half-maximal degradation concentration (DC50) was 0.004 µM and the Dmax came out at 98.2%.

In the case of `CN1CCN([C@@H]2CCCN(c3cnc(C(N)=O)c(Nc4ccc5c(c4)CCN(C4CN(c6ccc7c(c6)C(=O)N(C6CCC(=O)NC6=O)C7=O)C4)C5)n3)C2)C1=O` (stereo partly drawn) [Compound 8], in data set [1], the DC50 came to 0.001 µM and the greatest degradation seen (Dmax) stood at 98.4%.

Turning to `CN1CCN([C@@H]2CCCN(c3cnc(C(N)=O)c(Nc4ccc5c(c4)CCN(CC4CCN(c6ccc7c(c6)C(=O)N(C6CCC(=O)NC6=O)C7=O)CC4)C5)n3)C2)C1=O` (stereo partly drawn) [Compound 9], in data set [1], half-maximal degradation (DC50) was put at 0.012 µM and the Dmax was 86.5%.

`CN1CCN([C@@H]2CCCN(c3cnc(C(N)=O)c(Nc4ccc(N5CC6(C5)CN(c5ccc7c(c5)C(=O)N(C5CCC(=O)NC5=O)C7=O)C6)cc4)n3)C2)C1=O` (stereo partly drawn) [Compound 10]: in data set [1], the DC50 was found to be 0.009 µM and the greatest degradation seen (Dmax) worked out at 83.1%.

Regarding `CN1CCN([C@@H]2CCCN(c3cnc(C(N)=O)c(Nc4ccc(C5CN(C6CCN(c7ccc8c(c7)C(=O)N(C7CCC(=O)NC7=O)C8=O)CC6)C5)cc4)n3)C2)C1=O` (stereo partly drawn) [Compound 11], in data set [1], the DC50 stood at 0.02 µM and the Dmax was determined as 78.7%.

Consider `CN1CCN([C@@H]2CCCN(c3cnc(C(N)=O)c(Nc4ccc(N5CCN(C[C@@H]6[C@H]7CN(c8ccc9c(c8)C(=O)N(C8CCC(=O)NC8=O)C9=O)C[C@@H]67)CC5)cc4)n3)C2)C1=O` (stereo partly drawn) [Compound 12], for which, in data set [1], the 50% degradation concentration (DC50) was 0.007 µM and the Dmax came to 65.1%.

For `CN1CCN([C@@H]2CCCN(c3cnc(C(N)=O)c(Nc4ccc(C5CCN(C[C@H]6CCN(c7ccc8c(c7)C(=O)N(C7CCC(=O)NC7=O)C8=O)C6)CC5)cc4)n3)C2)C1=O` (stereo partly drawn) [Compound 13], in data set [1], the DC50 came out at 0.033 µM and the Dmax amounted to 73.9%.

On to `CN1CCN([C@@H]2CCCN(c3cnc(C(N)=O)c(Nc4ccc(C5CCN(CC6CCN(c7ccc8c(c7)C(=O)N(C7CCC(=O)NC7=O)C8=O)CC6)CC5)cc4)n3)C2)C1=O` (stereo partly drawn) [Compound 14], for which, in data set [1], the half-maximal degradation concentration (DC50) stood at 0.011 µM and the Dmax was 74%.

For `CN1CCN([C@@H]2CCCN(c3cnc(C(N)=O)c(Nc4ccc(C5CCN(C6CN(c7ccc8c(c7)C(=O)N(C7CCC(=O)NC7=O)C8=O)C6)CC5)cc4)n3)C2)C1=O` (stereo partly drawn) [Compound 15], in data set [1], half-maximal degradation (DC50) was put at 0.017 µM and the greatest degradation seen (Dmax) was 74.7%.

Consider `CN1CCN([C@@H]2CCCN(c3cnc(C(N)=O)c(Nc4ccc(OCCCNc5ccc6c(c5)C(=O)N(C5CCC(=O)NC5=O)C6=O)cc4)n3)C2)C1=O` (stereo partly drawn) [Compound 16], for which, in data set [1], it took 0.024 µM to reach half-maximal degradation (DC50) and the maximal degradation (Dmax) is 95.7%.

Turning to `CN1CCN([C@@H]2CCCN(c3cnc(C(N)=O)c(Nc4ccc(C5(C)CCN(C(=O)CCOCCC(=O)Nc6cccc7c6CN(C6CCC(=O)NC6=O)C7=O)CC5)cc4)n3)C2)C1=O` (stereo partly drawn) [Compound 17], in data set [1], the DC50 stood at 0.56 µM and the greatest degradation seen (Dmax) was 51.9%.

With `CN1CCN([C@@H]2CCCN(c3cnc(C(N)=O)c(Nc4ccc(N5CCN(CCCCc6cccc7c6CN(C6CCC(=O)NC6=O)C7=O)CC5)cc4)n3)C2)C1=O` (stereo partly drawn) [Compound 18], in data set [1], the DC50 was determined as 0.009 µM and the greatest degradation seen (Dmax) was 81.6%.

In the case of `CN1CCN([C@@H]2CCCN(c3cnc(C(N)=O)c(Nc4ccc(C5CCN(C(=O)CCOCCNc6cccc7c6C(=O)N(C6CCC(=O)NC6=O)C7=O)CC5)cc4)n3)C2)C1=O` (stereo partly drawn) [Compound 19], in data set [1], the DC50 was 0.001 µM and the Dmax came out at 98.6%.
